Measured values taken from BindingDB's records for doi:10.1002/syn.890150302 (Vanderbilt University, 1993).
Values joined by “and” are separate entries in the source; they are usually repeats but may differ in a detail not shown here. Equal entries are not always repeated.

molecular target: D(2) dopamine receptor (Rattus norvegicus, UniProt P61169)
Sequence (P61169 whole entry): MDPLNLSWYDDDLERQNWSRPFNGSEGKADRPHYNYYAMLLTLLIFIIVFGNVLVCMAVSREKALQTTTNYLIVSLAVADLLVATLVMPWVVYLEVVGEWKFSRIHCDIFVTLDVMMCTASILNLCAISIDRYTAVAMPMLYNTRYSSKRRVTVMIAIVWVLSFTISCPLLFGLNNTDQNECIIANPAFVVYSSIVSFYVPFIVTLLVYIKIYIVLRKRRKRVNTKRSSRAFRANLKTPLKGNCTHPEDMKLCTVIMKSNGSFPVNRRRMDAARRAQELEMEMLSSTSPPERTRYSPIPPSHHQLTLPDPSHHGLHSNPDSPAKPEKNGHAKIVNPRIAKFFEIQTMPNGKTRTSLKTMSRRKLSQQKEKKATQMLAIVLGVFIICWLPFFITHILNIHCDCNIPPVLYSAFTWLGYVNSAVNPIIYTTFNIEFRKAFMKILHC

Row | SMILES | Ki
1 | COc1cc2nc(N3CCN(C(=O)c4ccco4)CC3)nc(N)c2cc1OC [[3H]-Minipress] | > 10 µM
2 | C=CCc1ccccc1OC[C@@H](O)CNC(C)C [ALPRENOLOL,(-)] | > 10 µM and 6.86 µM
3 | CCN1CCC[C@H]1CNC(=O)c1cc(I)cc(OC)c1OC | 0.0001 µM and 0.00012 µM
4 | O=C(c1ccc(F)cc1)C1CCN(CCn2c(=O)[nH]c3ccccc3c2=O)CC1 [3-(2-{4-[(4-fluorophenyl)carbonyl]piperidin-1-yl}ethyl)-1,2,3,4-tetrahydroquinazoline-2,4-dione] | 0.555 µM and 0.519 µM
5 | CN1[C@@H]2CC[C@H]1C[C@@H](OC(=O)c1cc(Cl)cc(Cl)c1)C2 [TROPANYL 3,5-DICHLOROBENZOATE] | > 10 µM
6 | CN1CCc2cc3c(cc2[C@H]1[C@@H]1OC(=O)c2c1ccc1c2OCO1)OCO3 [(R)-6-((S)-6-methyl-5,6,7,8-tetrahydro-[1,3]dioxolo[4,5-g]isoquinolin-5-yl)isobenzofuro[5,4-d][1,3]dioxol-8(6H)-one] | > 10 µM
7 | c1ccc2c(c1)OCC(C1=NCCN1)O2 (centres undefined) | > 10 µM
8 | NCc1cc(=O)[nH]o1 | > 10 µM
9 | C=CCN1CC[C@]2(C)c3cc(O)ccc3C[C@@H]1[C@@H]2C [SKF 10,047 (-)] | > 10 µM
